Reference: the supplement of paper PMC11061612

Assays:
Test in all cases: combination Emax (second highest fraction inhibited in the dose matrix, 72 h); higher = more inhibition; extreme values may be limits of the assay
[1] = system: LNZTA3WT4 (Low Grade Glioma)
In short: (§1)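 Cell lines grown in DMEM/F12 or RPMI with 10% FBS were plated in 1536-well plates and held 24 hours at 37°C, 5% CO2 before 72 hours of exposure to two-drug dose matrices, with DMSO typically at 0.2%. CellTiter-Glo 2.0 luminescence gave viability, which was converted to inhibition. Vehicle wells were set to 0 and blank wells to 1. Combination Emax is the second-highest inhibition in the matrix, and Bliss excess is the observed combination effect minus the expected EA + EB − EA·EB, where EA and EB are the single-agent effects.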

A673 (Ewing's Sarcoma) = system: A673 (Ewing's Sarcoma)
In short: as §1

[2] = system: SAS (Oral Cavity Carcinoma)
In short: as §1

GAMG (Glioblastoma) = system: GAMG (Glioblastoma)
In short: as §1

[3] = system: SNU-449 (Hepatocellular Carcinoma)
In short: as §1

KS-1 (Glioblastoma) = system: KS-1 (Glioblastoma)
In short: as §1

[4] = system: BE-13 (T-Lymphoblastic Leukemia)
In short: as §1

[5] = system: TGBC1TKB (Biliary Tract Carcinoma)
In short: as §1

[6] = system: NCI-H524 (Small Cell Lung Carcinoma)
In short: as §1

[7] = system: NCI-H209 (Small Cell Lung Carcinoma)
In short: as §1

[8] = system: HuH-7 (Hepatocellular Carcinoma)
In short: as §1

[9] = system: NUGC-4 (Gastric Carcinoma)
In short: as §1

[10] = system: CAL-33 (Oral Cavity Carcinoma)
In short: as §1

BE2-M17 (Neuroblastoma) = system: BE2-M17 (Neuroblastoma)
In short: as §1

BPH-1 (Non-Cancerous) = system: BPH-1 (Non-Cancerous)
In short: as §1

[11] = system: OV-56 (Ovarian Carcinoma)
In short: as §1

[12] = system: OE21 (Esophageal Squamous Cell Carcinoma)
In short: as §1

[13] = system: LCLC-97TM1 (Non-Small Cell Lung Carcinoma)
In short: as §1

CAL-72 (Osteosarcoma) = system: CAL-72 (Osteosarcoma)
In short: as §1

[14] = system: LS-123 (Colorectal Carcinoma)
In short: as §1

| Compound | combination Emax [1] | combination Emax (A673 (Ewing's Sarcoma)) | combination Emax [2] | combination Emax (GAMG (Glioblastoma)) | combination Emax [3] | combination Emax (KS-1 (Glioblastoma)) | combination Emax [4] | combination Emax [5] | combination Emax [6] | combination Emax [7] | combination Emax [8] | combination Emax [9] | combination Emax [10] | combination Emax (BE2-M17 (Neuroblastoma)) | combination Emax (BPH-1 (Non-Cancerous)) | combination Emax [11] | combination Emax [12] | combination Emax [13] | combination Emax (CAL-72 (Osteosarcoma)) | combination Emax [14] |
| --- | --- | --- | --- | --- | --- | --- | --- | --- | --- | --- | --- | --- | --- | --- | --- | --- | --- | --- | --- | --- |
| CN(CCO)CC[C@H](CSc1ccccc1)Nc1ccc(S(=O)(=O)NC(=O)c2ccc(N3CCC([C@@H](O)c4ccccc4-c4ccc(Cl)cc4)CC3)cc2)cc1S(=O)(=O)C(F)(F)F [AZD4320] + CC(=O)O[C@H]1C(=O)[C@@]2(C)[C@H]([C@H](OC(=O)c3ccccc3)[C@]3(O)C[C@H](OC(=O)[C@H](O)[C@@H](NC(=O)c4ccccc4)c4ccccc4)C(C)=C1C3(C)C)[C@]1(OC(C)=O)CO[C@@H]1C[C@@H]2O [Paclitaxel] (first compound max 1 µM, 7x7, partner max 3 µM) | 0.967 | 1 | 0.971 | 1 | 0.414 | 0.937 | 1 | 0.894 | 1 |  |  |  |  |  |  |  |  |  |  |  |
| CN(CCO)CC[C@H](CSc1ccccc1)Nc1ccc(S(=O)(=O)NC(=O)c2ccc(N3CCC([C@@H](O)c4ccccc4-c4ccc(Cl)cc4)CC3)cc2)cc1S(=O)(=O)C(F)(F)F [AZD4320] + Cc1cc2ncnn2cc1Nc1ncc2c(n1)n(C1CCOCC1)c(=O)n2C [AZD7648] (first compound max 1 µM, 7x7, partner max 10 µM) | 0.132 | 0.937 | 0.118 | 0.286 | 0.166 | 0.319 | 0.981 | 0.577 | 0.822 | 1 | 0.279 | 0.329 | 0.363 | 0.369 | 0.373 | 0.149 | 0.17 | 0.203 | 0.382 |  |
| CN(CCO)CC[C@H](CSc1ccccc1)Nc1ccc(S(=O)(=O)NC(=O)c2ccc(N3CCC([C@@H](O)c4ccccc4-c4ccc(Cl)cc4)CC3)cc2)cc1S(=O)(=O)C(F)(F)F [AZD4320] + Nc1ccn([C@@H]2O[C@H](CO)[C@@H](O)C2(F)F)c(=O)n1 [Gemcitabine] (first compound max 1 µM, 7x7, partner max 0.3 µM) | 0.608 | 0.995 | 0.983 | 0.889 | 0.367 | 0.304 | 1 | 0.408 | 0.906 |  |  |  |  |  |  |  |  |  | 0.854 |  |
| COc1nnc2ccc(N3CCC(c4ccc(OCCN5CCN(C)C(=O)[C@H]5C)cc4)CC3)nn12 [AZD5153] + CN(CC[C@H](CSC1=CC=CC=C1)NC2=C(C=C(C=C2)S(=O)(=O)NC(=O)C3=CC=C(C=C3)N4CCC(CC4)[C@H](C5=CC=CC=C5C6=CC=C(C=C6)Cl)O)S(=O)(=O)C(F)(F)F)CCO [AZD4320] (first compound max 1 µM, 7x7, partner max 1 µM) |  |  |  |  |  |  |  |  |  | 1 | 0.786 | 0.634 | 0.343 | 0.915 | 0.928 | 0.507 | 0.739 | 0.726 |  |  |
| Cc1cc2ncnn2cc1Nc1ncc2c(n1)n(C1CCOCC1)c(=O)n2C [AZD7648] + C=CCn1c(=O)c2cnc(Nc3ccc(N4CCN(C)CC4)cc3)nc2n1-c1cccc(C(C)(C)O)n1 [AZD1775] (first compound max 10 µM, partner max 1 µM) | 0.717 | 0.594 | 0.734 | 0.706 | 0.333 | 0.425 | 1 | 0.335 | 0.808 | 0.743 | 0.252 | 0.359 | 0.864 | 0.704 | 0.53 | 0.307 | 0.673 | 0.781 | 0.649 | 0.641 |
| Cc1cc2ncnn2cc1Nc1ncc2c(n1)n(C1CCOCC1)c(=O)n2C [AZD7648] + CCN(CCO)CCCOc1ccc2c(Nc3cc(CC(=O)Nc4cccc(F)c4)[nH]n3)ncnc2c1 [AZD2811] (first compound max 10 µM, 7x7, partner max 1 µM) | 0.266 | 0.765 | 0.255 | 0.514 | 0.318 | 0.4 | 0.764 | 0.313 | 0.985 | 0.596 | 0.23 | 0.281 | 0.913 | 0.379 | 0.614 | 0.276 | 0.492 | 0.44 | 0.436 | 0.309 |
| Cc1cc2ncnn2cc1Nc1ncc2c(n1)n(C1CCOCC1)c(=O)n2C [AZD7648] + CN(C)CCCOc1ccc(-c2ccc3ncc4c(c3c2)n(C2CCOCC2)c(=O)n4C)cn1 [AZD0156] (first compound max 10 µM, 7x7, partner max 1 µM) | 0.276 | 0.336 | 0.307 | 0.402 | 0.282 | 0.245 | 0.323 | 0.398 | 0.312 | 0.237 | 0.201 | 0.216 | 0.375 | 0.283 | 0.378 | 0.224 | 0.554 | 0.159 | 0.399 | 0.34 |
| Cc1cc2ncnn2cc1Nc1ncc2c(n1)n(C1CCOCC1)c(=O)n2C [AZD7648] + C[C@@H]1COCCN1C2=NC(=NC(=C2)C3(CC3)[S@](=N)(=O)C)C4=C5C=CNC5=NC=C4 [AZD6738] (first compound max 10 µM, 7x7, partner max 10 µM) | 0.766 | 0.809 | 0.856 | 0.681 | 0.279 | 0.595 | 0.757 | 0.526 | 0.759 | 0.691 | 0.215 | 0.509 | 0.793 | 0.844 | 0.429 | 0.734 | 0.74 | 0.84 | 0.788 | 0.619 |
| Cc1cc2ncnn2cc1Nc1ncc2c(n1)n(C1CCOCC1)c(=O)n2C [AZD7648] + O=C(c1cc(Cc2n[nH]c(=O)c3ccccc23)ccc1F)N1CCN(C(=O)C2CC2)CC1 [Olaparib] (first compound max 10 µM, 7x7, partner max 10 µM) | 0.0958 | 0.585 | 0.213 | 0.11 | 0.0839 | 0.162 | 0.255 | 0.201 | 0.365 | 0.917 | 0.198 | 0.202 | 0.243 | 0.414 | 0.515 | 0.103 | 0.354 | 0.199 | 0.322 | 0.297 |
| Cc1nc(Nc2ncc(C(=O)Nc3c(C)cccc3Cl)s2)cc(N2CCN(CCO)CC2)n1 [Dasatinib] + CC(=O)Nc1cccc(-n2c(=O)n(C3CC3)c(=O)c3c(Nc4ccc(I)cc4F)n(C)c(=O)c(C)c32)c1 [Trametinib] (first compound max 2 µM, 7x7, partner max 1 µM) | 0.329 | 0.237 | 0.713 | 0.476 | 0.691 | 0.641 | 0.607 | 0.715 | 0.0954 | 0.124 | 0.662 | 0.431 | 0.629 | 0.868 | 0.744 | 0.446 | 0.723 | 0.904 | 0.545 | 0.928 |
| N#Cc1cnc(Nc2cc(NC[C@H]3CNCCO3)c(C(F)(F)F)cn2)cn1 [SRA737] + C=CCn1c(=O)c2cnc(Nc3ccc(N4CCN(C)CC4)cc3)nc2n1-c1cccc(C(C)(C)O)n1 [AZD1775] (first compound max 10 µM, partner max 1 µM) | 0.91 | 0.635 | 0.824 | 0.726 | 0.562 | 0.499 | 0.993 | 0.271 | 0.912 |  |  |  |  |  |  |  |  |  | 0.88 | 0.722 |
| N#Cc1cnc(Nc2cc(NC[C@H]3CNCCO3)c(C(F)(F)F)cn2)cn1 [SRA737] + CCc1c2c(nc3ccc(O)cc13)-c1cc3c(c(=O)n1C2)COC(=O)[C@]3(O)CC [SN-38] (first compound max 10 µM, 7x7, partner max 0.3 µM) | 0.84 | 0.945 | 1 | 0.878 | 0.704 | 0.458 | 0.99 | 0.367 | 0.938 |  |  |  |  |  |  |  |  |  | 0.91 | 0.773 |
| N#Cc1cnc(Nc2cc(NC[C@H]3CNCCO3)c(C(F)(F)F)cn2)cn1 [SRA737] + Nc1ccn([C@@H]2O[C@H](CO)[C@@H](O)C2(F)F)c(=O)n1 [Gemcitabine] (first compound max 10 µM, 7x7, partner max 0.3 µM) | 0.882 | 0.946 | 0.956 | 0.892 | 0.515 | 0.5 | 1 | 0.457 | 1 |  |  |  |  |  |  |  |  |  | 0.72 | 0.759 |
| C[C@@H](c1ccc2nccn2c1)n1nnc2ncc(-c3cnn(C)c3)nc21 [Savolitinib] + CN(CC[C@H](CSC1=CC=CC=C1)NC2=C(C=C(C=C2)S(=O)(=O)NC(=O)C3=CC=C(C=C3)N4CCC(CC4)[C@H](C5=CC=CC=C5C6=CC=C(C=C6)Cl)O)S(=O)(=O)C(F)(F)F)CCO [AZD4320] (first compound max 1 µM, 7x7, partner max 1 µM) |  |  |  |  |  |  |  |  |  | 1 | 0.265 | 0.262 | 0.222 | 0.305 | 0.346 | 0.212 | 0.101 | 0.101 |  |  |
